Experimental data published in patent US9751851B2, “Molecules and compositions that inhibit gram negative bacteria and their uses” (THE TRUSTEES OF PRINCETON UNIVERSITY, priority 2013, dated 2017).

What was measured:
[1] = biological target: T1, LasR (Pseudomonas aeruginosa, UniProt P25084); experiment: LasR-GFP assay (rsaL-gfp reporter in recombinant E. coli); format: cell-based, P. aeruginosa
T1 construct: expressed in transfected cells; host or cells: E. coli BL21-Gold (DE3) carrying pET23b-lasR
Description: (§1) Methods. The LasR-GFP assays were performed in E. coli strain BL21 DE3 Gold (Agilent) carrying pET23b (Novagen) containing lasR (maintained with 100 μg/mL ampicillin) and carrying plasmid pEVS141 (31) containing the rsaL promoter driving expression of gfp (maintained with […] of kanamycin.) The RhlR-GFP assays were performed in E. coli strain BL21 DE3 Gold (Agilent) carrying pET23b (Novagen) containing rhlR (maintained with 100 μg/mL ampicillin) and carrying plasmid pEVS141 containing the rhlA promoter driving expression of gfp (maintained with 50 μg/mL of kanamycin.) These E. coli strains were grown overnight and subcultured into fresh medium with appropriate antibiotics at a 1:100 dilution and grown shaking for 8 hr at 37° C. for the LasR-GFP strain and 12 hr for the RhlR-GFP construct. 50 nM 3OC12-HSL or 20 μM C4-HSL was added to the LasR-GFP and RhlR-GFP preparations, respectively. Compounds were tested at 1 mM for antagonism and at 100 nM or 20 μM for agonism. These concentrations were chosen for agonism studies to match the concentrations of autoinducers used in the experiments. For antagonism studies, the EC95 concentration was used for each receptor. GFP was measured on an Envision plate reader.
(§2) The LasR-GFP assays were performed in E. coli strain BL21 DE3 Gold (Agilent) carrying pET23b (Novagen) containing lasR (maintained with 100 μg/mL ampicillin) and carrying plasmid pEVS141 (31) containing the rsaL promoter driving expression of gfp (maintained with 50 μg/mL of kanamycin.) The RhlR-GFP assays were performed in E. coli strain BL21 DE3 Gold (Agilent) carrying pET23b (Novagen) containing rhlR (maintained with 100 μg/mL ampicillin) and carrying plasmid pEVS141 (31) containing the rhlA promoter driving expression of gfp (maintained with 50 μg/mL of kanamycin.) These E. coli strains were grown overnight and subcultured into fresh medium with appropriate antibiotics at a 1:100 dilution and grown shaking for 8 hr at 37° C. for the LasR-GFP strain and 12 hr for the RhlR-GFP construct. 50 nM 3OC12-HSL or 20 μM C4-HSL was added to the LasR-GFP and RhlR-GFP preparations, respectively. Compounds were tested at 1 mM for antagonism and at 100 nM or 20 μM for agonism. These concentrations were chosen for agonism studies to match the concentrations of autoinducers used in our experiments. For antagonism studies, we used the EC95 concentration for each receptor. GFP was measured on an Envision plate reader.

[2] = system: A549 human lung cells infected with P. aeruginosa PA14; experiment: A549 human lung cell infection (propidium iodide uptake); format: cell-based; settings: wild-type and lasR mutant strains; 100 μM compound
Description: Methods. Human A549 cells were grown in CellStar tissue culture flasks. Prior to infection, the A549 cells were treated with trypsin-EDTA (CellGro), split, counted, and aliquotted into 96 well plates at 20,000 mammalian cells/well (cell counts were estimated using Trypan Blue (CellGro) exclusion). Cells were grown for 20 hr at 37° C. in DMEM (Invitrogen). Cells were washed 3× with warm PBS (Gibco). 100 μL of “master mix” was added to each well for each condition. Master mix contained 1 mL pre-warmed-PBS, 5 μL of 2 mg/mL propidium iodide (Bioprobes), 1 μL of a 100 mM inhibitor stock or DMSO, and 10 μL of OD600=2 P. aeruginosa PA14 grown in the presence of mBTL or DMSO. Infections were monitored using an EnVision plate reader every 2 hr with the RFP filter supplied by GE.

[3] = system: P. aeruginosa PA14; experiment: C. elegans fast killing infection assay; format: in vivo
Description: Methods. C. elegans fast killing assays were conducted with 90 wild-type N2 worms for each condition (30 worms/replicate, 3 replicates performed). C. elegans were propagated on NGM plates prior to eggs being harvested from gravid adults using a standard bleaching protocol (30 mL 5% bleach, 15 mL 5 M KOH, 55 mL dH2O). Harvested eggs were placed on lawns of fresh E. coli HB101 and allowed to grow for 48 hr (to reach the L4 stage) at 20° C. prior to being moved to lawns of P. aeruginosa and placed at 25° C. on sorbitol, glucose, cholesterol plates. Nematodes were scored for survival every hr for 5 hr and again at 24 hr. The % living worms was calculated in triplicate for each time point. 50 μM mBTL or an equivalent volume of DMSO was added to plates and to the bacterial cultures during growth.

[4] = system: P. aeruginosa PA14; experiment: Growth of P. aeruginosa monitored by absorbance at 600 nm; format: cell-based
[5] = system: wild-type P. aeruginosa PA14; experiment: microbe, parasite or virus in culture; format: cell-based
Method in brief: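 PA14 cultures diluted 1:1000, grown aerobically 17 h at 37° C with shaking with compound at 100 μM (end point) or 200 nM–200 μM (titration). Pyocyanin in filtered cell-free fluid read at 695 nm; efficacy 0% at WT level, 100% at medium background; IC50 from variable-slope sigmoidal fit.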

[6] = biological target: T2, RhlR (Pseudomonas aeruginosa, UniProt P54292); experiment: RhlR-GFP assay (rhlA-gfp reporter in recombinant E. coli); format: cell-based, P. aeruginosa
T2 construct: expressed in transfected cells; host or cells: E. coli BL21-Gold (DE3) carrying pET23b-rhlR
Description: as §1, §2

T1 sequence (P25084 whole entry): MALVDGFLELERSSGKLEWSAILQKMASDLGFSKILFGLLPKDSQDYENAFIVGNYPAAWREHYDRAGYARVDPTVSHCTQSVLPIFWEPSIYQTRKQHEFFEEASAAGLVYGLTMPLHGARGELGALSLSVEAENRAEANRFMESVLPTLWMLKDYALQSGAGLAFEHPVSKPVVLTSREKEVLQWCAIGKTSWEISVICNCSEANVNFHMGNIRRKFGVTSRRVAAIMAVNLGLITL
T2 sequence (P54292 whole entry): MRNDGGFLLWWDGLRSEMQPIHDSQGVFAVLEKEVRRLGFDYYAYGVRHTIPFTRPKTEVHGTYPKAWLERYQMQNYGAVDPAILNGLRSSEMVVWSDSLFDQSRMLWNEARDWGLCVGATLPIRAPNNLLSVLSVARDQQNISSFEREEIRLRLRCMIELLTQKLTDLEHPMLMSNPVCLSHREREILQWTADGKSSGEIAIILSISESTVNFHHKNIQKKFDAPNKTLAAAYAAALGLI

meta-bromothiolactone [mBTL]
inhibition of LasR activation of rsaL-gfp (antagonism) ([1]; mBTL at 1 mM, 3OC12-HSL at EC95): 22%
LasR partial agonism (gfp expression, cognate autoinducer = 100%) ([1]; no autoinducer, compound at 100 nM): 72%
killing of A549 cells by P. aeruginosa [2]: reduces killing
C. elegans death ([3]; lasR mutant P. aeruginosa PA14 treated with 50 μM mBTL): 50%
C. elegans death ([3]; wild-type P. aeruginosa PA14 treated with 50 μM mBTL): 23%
effect on P. aeruginosa PA14 growth [4]: not affecting P. aeruginosa PA14 growth
IC50 ([5]; WT P. aeruginosa PA14, 17 hr growth, titration, read-out: IC50 for inhibition of pyocyanin production): 8 µM
inhibition of pyocyanin production (in words) ([5]; wild-type P. aeruginosa PA14, end point assays at 100 μM): potent inhibition of pyocyanin
inhibition of RhlR activation of rhlA-gfp (antagonism) ([6]; mBTL at 1 mM, C4-HSL at EC95 (20 μM)): 43%
RhlR partial agonism (gfp expression, cognate autoinducer = 100%) ([6]; no autoinducer, compound at 20 μM): 80%
